Data published in ChEMBL document CHEMBL1124088, “Synthesis and evaluation of 3-substituted analogues of 1,2,3,4-tetrahydroisoquinoline as inhibitors of phenylethanolamine N-methyltransferase” (J Med Chem, 1988).
pKi: −log10 of the molar value.

target: T1, Phenylethanolamine N-methyltransferase (Bos taurus, UniProt P10938); experiment: In vitro inhibitory activity measured against bovine adrenal phenylethanolamine N-methyltransferase(PNMT)
T1 sequence (P10938 whole entry): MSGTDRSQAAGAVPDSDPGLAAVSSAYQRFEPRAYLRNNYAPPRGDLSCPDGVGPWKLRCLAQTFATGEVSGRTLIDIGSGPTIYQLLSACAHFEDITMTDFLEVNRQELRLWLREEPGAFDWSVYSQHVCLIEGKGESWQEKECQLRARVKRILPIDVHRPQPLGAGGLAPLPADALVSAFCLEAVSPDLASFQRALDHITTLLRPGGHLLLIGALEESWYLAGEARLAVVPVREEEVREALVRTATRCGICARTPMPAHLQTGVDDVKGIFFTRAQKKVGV

Row | pKi | Structure (SMILES)
1 | < 2.70 | O=C(O)C1Cc2ccccc2CN1 (configuration not stated)
2 | 6.42 | OCC1Cc2ccc(Cl)c(Cl)c2CN1 (configuration not stated)
3 | 5.62 | OCC1Cc2ccccc2CN1 (configuration not stated)
4 | 4.39 | NC(=O)C1Cc2ccccc2CN1 (configuration not stated)

Row | Structure (SMILES) | pKi
5 | Clc1ccc2c(c1Cl)CNCC2 | 6.62
6 | CCC1Cc2ccccc2CN1 (configuration not stated) | 4.62

target: T1, Phenylethanolamine N-methyltransferase; experiment: In vitro inhibitory activity measured against bovine adrenal phenylethanolamine N-methyltransferase(PNMT); Ki values determined at incubation times of 5, 10, 15, 20 and 30 min

Row | pKi | Structure (SMILES)
7 | 4.16 | COC(=O)C1Cc2ccccc2CN1 (configuration not stated)
